The text below walks through data of patent US7625896B2, “Pyridylsulfonamide derivatives” (Hoffman-La Roche Inc., priority 2005, dated 2009).

The structures appear in SMILES notation.

One may read the IC50 as the point on the concentration scale where inhibition reaches its midpoint. Low readings indicate greater potency in that assay, high ones weaker potency in that assay.

This test has as its system HCT 116 cells. The test can be described thus: Viability assay in HCT 116 cells (CellTiter-Glo Luminescent Cell Viability Assay). The class given is cell-based. Particulars: HCT 116 human colon carcinoma cells, 5 days (120 h) incubation, 10 concentrations 30 μM to 0.0015 μM, ATP luminescence. The method, then: Viability Assay in HCT 116 Cells
A viability assay was performed using the CellTiter-Glo® Luminescent Cell Viability Assay (see Promega Corporation's Technical Bulletin No. 288, pp. 1-11 [revised February 2004] which is hereby incorporated by reference in its entirety). This assay is a homogeneous method of determining the number of viable cells in culture based on quantitation of the ATP present, an indicator of metabolically active cells. The assay is designed for use with multiwell formats, making it ideal for automated high-throughput screening (HTS), cell proliferation and cytotoxicity assays. The homogeneous assay procedure involves adding a single reagent (containing luciferase, luciferan substrate, and buffer) directly to cells cultured in serum-supplemented medium. Cell washing, removal of medium and multiple pipetting steps are not required. The system detects as few as 15 cells/well in a 384-well format in 10 minutes after adding reagent and mixing.
The homogeneous “add-mix-measure” format results in cell lysis and generation of a luminescent signal proportional to the amount of ATP present. The amount of ATP is directly proportional to the number of cells present in culture. The above-referenced assay generates a “glow-type” luminescent signal, produced by the luciferase reaction, which has a half-life generally greater than five hours, depending on cell type and medium used. The extended half-life eliminates the need to use reagent injectors and provides flexibility for continuous or batch mode processing of multiple plates. The unique homogeneous format avoids errors that may be introduced by other ATP measurement methods that require multiple steps.
HCT 116 cells (human colon carcinoma, ATCC-No. CCl-247) were cultivated in RPMI 1640 medium with GlutaMAX™ I (cell culture media that contains L-Alanyl-L-Glutamine [a stabilized form/source of L-Glutamine] from Invitrogen, Cat-No. 61870-010), 5% Fetal Calf Serum (FCS, Sigma Cat-No. F4135 (FBS)); 100 Units/ml penicillin/100 μg/ml streptomycin (=Pen/Strep from Invitrogen Cat. No. 15140). For the assay the cells were seeded in 384 well plates, 1000 cells per well, in the same medium. The next day the test compounds were added in various concentrations ranging from 30 μM to 0.0015 μM (10 concentrations, 1:3 diluted). After 5 days the viability assay was performed according to the instructions of the manufacturer. In brief: the cell-plate was equilibrated to room temperature for approximately 30 minutes and then the reagent (containing luciferase, luciferan substrate, and buffer) was added. The contents were carefully mixed for 15 minutes to induce cell lysis. After 45 minutes the luminescent signal was measured in Victor 2, (scanning multiwell spectrophotometer, Wallac).
1st. Day: • Medium: RPMI 1640 with GlutaMAX™ I (Invitrogen, Cat-No. 61870), 5% FCS (Sigma Cat.-No. F4135), Pen/Strep (Invitrogen, Cat No. 15140). • HCT116 (ATCC-No. CCl-247): 1000 cells in 60 μl per well of 384 well plate (Greiner 781098, μClear-plate white) • After seeding incubate plates 24 h at 37° C., 5% CO2
2nd. Day: Induction (Treatment with Compounds, 10 Concentrations):
In order to achieve a final concentration of 30 μM as highest concentration 3.5 μl of 10 mM compound stock solution were added directly to 163 μl media. Then step e) of the dilution procedure described below, was followed.
With `O=C(NS(=O)(=O)c1ccc(N2CCSCC2)nc1)c1ccc(Cl)cc1Cl` [Example 1-71, 6-Thiomorpholin-4-yl-pyridine-3-sulfonic acid 2,4-dichloro-benzoylamide], the IC50 was 1 to 16 µM.

Compound `C[C@@H]1CN(c2ccc(S(=O)(=O)NC(=O)c3ccc(Cl)cc3C(F)(F)F)cn2)C[C@H](C)O1` [Example 1-72, 6-((2R,6S)-2,6-Dimethyl-morpholin-4-yl)-pyridine-3-sulfonic acid 4-chloro-2-trifluoromethyl-benzoylamide] displayed a half-inhibitory concentration (IC50) of 1 to 16 µM. In the case of `O=C(NS(=O)(=O)c1ccc(N2CCCCCC2)nc1)c1ccc(F)cc1C(F)(F)F` [Example 1-78, 6-Azepan-1-yl-pyridine-3-sulfonic acid 4-fluoro-2-trifluoromethyl-benzoylamide], the IC50 was in the range of 1 to 16 µM. The result for `O=C(NS(=O)(=O)c1ccc(N2CCSCC2)nc1)c1ccc(F)cc1C(F)(F)F` [Example 1-80, 6-Thiomorpholin-4-yl-pyridine-3-sulfonic acid 4-fluoro-2-trifluoromethyl-benzoylamide] reads 1 to 16 µM.
